Laboratory results from US7501281B2, “Compositions, methods and kits related to thrombin, Notch signaling and stamatogenesis and growth of stem cells” (Maine Medical Center Research Institute, priority 2003, dated 2009).

Experiments:
primary NCSC populations = experiment: Clonogenic differentiation of primary NCSC, dosage sensitivity to Notch ligands; type: cell-based, rat; conditions: two week differentiation assay
Description: FIG. 12A depicts an RT-PCR analysis of FGF1.A mRNA expression. Briefly, populations of murine NCSC were treated for 48 hours in Morrison media supplemented with either 7.5 nM sJ1, 5.0 nM sDl1, 10 μg/ml of α-thrombin or 5 μg/ml TRAP, and the steady-state levels of the FGF1.A mRNA were measured using RT-PCR as described elsewhere herein. […] Clonogenic differentiation assays of murine NCSC populations were assessed by maintaining the cells in Morrison media supplemented with increasing concentrations of either sJ1 or sDl1. The results are presented as the number of colonies at day 14 (mean±standard deviation for at least three experiments) originating from three independent cell isolations as function of concentration of sJ1 and sDl1 using two assays of ligand sensitivity: the percentage of glial-only clones (▪-▪; ▴-▴) and the percentage of neuron-containing clones (♦-♦; ▾-▾) produced after 14 days of ligand exposure. Legend: (▴-▴)sJ1/Glial, (▾-▾) sDl1/Glial (♦-♦) sJ1/Neural and (▾-▾) sJDl1/Neural. […] Clonogenic differentiation assays of NCSC populations was assessed by maintaining the cells in Morrison media supplemented with either 7.5 nM sJ1 (▪-▪) or 5 nM sDl1 (▴-▴). The onset of gliogenic differentiation was determined by GFAP immunohistochemistry. Results are presented as the percentage of GFAP-positive clones (mean±standard deviation of three experiments). […]

[1] = system: PAR1 null cells adenovirally-transduced with the FGF1R136K mutant; experiment: Immunoblot analysis of FGF1 release in PAR1 null cells; type: cell-based, mouse; conditions: 10 μg/ml α-thrombin
human Jagged1 = target: T1, human Jagged1 (Homo sapiens, UniProt P78504, A1171G); experiment: Thrombin cleavage of in vitro translated Jagged1 and Edman microsequencing; type: biochemical
T1 construct: full-length Jagged1 was in vitro transcribed and translated; made in house; host or cells: cell-free: T7-coupled reticulocyte lysate in vitro transcription/translation system (Promega)
T1 sequence (P78504 34-1218 A1171G): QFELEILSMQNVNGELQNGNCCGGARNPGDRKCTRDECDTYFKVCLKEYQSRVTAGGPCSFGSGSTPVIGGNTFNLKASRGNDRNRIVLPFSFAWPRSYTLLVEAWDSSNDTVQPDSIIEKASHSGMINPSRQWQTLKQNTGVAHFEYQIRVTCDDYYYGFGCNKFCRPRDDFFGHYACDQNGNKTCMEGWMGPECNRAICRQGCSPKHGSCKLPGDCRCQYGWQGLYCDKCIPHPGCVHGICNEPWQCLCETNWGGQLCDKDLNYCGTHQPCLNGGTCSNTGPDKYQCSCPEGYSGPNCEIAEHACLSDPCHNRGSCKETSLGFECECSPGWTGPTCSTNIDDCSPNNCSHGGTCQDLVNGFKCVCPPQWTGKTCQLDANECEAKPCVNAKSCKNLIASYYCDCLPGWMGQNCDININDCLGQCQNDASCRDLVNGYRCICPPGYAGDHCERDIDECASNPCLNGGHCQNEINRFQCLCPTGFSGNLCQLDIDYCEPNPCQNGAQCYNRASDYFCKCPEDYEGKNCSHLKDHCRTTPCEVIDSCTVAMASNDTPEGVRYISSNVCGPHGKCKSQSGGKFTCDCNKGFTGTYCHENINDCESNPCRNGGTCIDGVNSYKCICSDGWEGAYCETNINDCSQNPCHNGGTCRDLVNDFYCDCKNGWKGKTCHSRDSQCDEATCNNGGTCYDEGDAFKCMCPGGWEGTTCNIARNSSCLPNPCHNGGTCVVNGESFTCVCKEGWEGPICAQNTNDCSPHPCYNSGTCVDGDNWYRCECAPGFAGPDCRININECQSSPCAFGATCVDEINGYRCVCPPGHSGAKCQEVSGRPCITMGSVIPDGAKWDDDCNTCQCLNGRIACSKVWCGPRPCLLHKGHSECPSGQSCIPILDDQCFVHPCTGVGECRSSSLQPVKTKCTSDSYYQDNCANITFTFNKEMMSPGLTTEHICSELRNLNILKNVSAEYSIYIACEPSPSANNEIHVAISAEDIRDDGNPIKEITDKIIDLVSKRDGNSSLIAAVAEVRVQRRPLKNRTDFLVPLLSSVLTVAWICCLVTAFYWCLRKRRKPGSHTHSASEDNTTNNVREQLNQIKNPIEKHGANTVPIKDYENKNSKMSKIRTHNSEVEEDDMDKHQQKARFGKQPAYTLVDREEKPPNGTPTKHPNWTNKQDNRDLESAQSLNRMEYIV
Description: A plasmid containing human Jagged1 (Zimrin et al., 1996, J. Biol. Chem. 271:32499-32502) was in vitro transcribed and in vitro translated in the presence of a (^35S)-Met/Cys protein-labeling mixture (Amersham) using the T7-coupled reticulocyte lysate system according to the manufacturer's instructions (Promega) in a total volume of 50 μl. After 60 minutes incubation at 30° C., 0.05% DTT was added, half of the reaction mixture incubated with 10 μg α-thrombin for 15 minutes at 37° C., and the reaction stopped by boiling in the presence of SDS-PAGE sample buffer. The samples were resolved by 12% SDS-PAGE, transferred to a nitrocellulose membrane, and analyzed by autoradiography. […] The products of each cycle were collected prior to resolution by HPLC, added to liquid scintillation fluid (Beckman) and the (^35S) samples quantitated by liquid scintillation spectroscopy (Beckman).
In an attempt to further define this pathway and the role that sJ1 might play in the regulation of cell proliferation, it was assessed if the Jagged1 translation product was susceptible to proteolytic cleavage by thrombin. […] The Jagged1 transcript was translated in vitro in the presence of (^35S)-Cys, resolved by SDS-PAGE, the 95 kDa fragment excised, subjected to automated Edman chemistry and the products of each cycle monitored by liquid scintillation spectroscopy. […]

Substance	gliogenic differentiation of the NCSC population (primary NCSC populations)	export of the FGF1R136K mutant [1]	Jagged1 cleavage site (human Jagged1; Edman microsequencing of the 95 kDa fragment)	cleavage products of the 134 kDa Jagged1 translation product (human Jagged1; α-thrombin 15 minutes at 37° C.)
sJ1: Soluble Jagged1, amino acid residues from about 1 to 1067 (SEQ ID NO:3) of full-length Jagged1	capable of inducing gliogenic differentiation	–	–	–
Thrombin	–	unable to induce the export	between residues R348 and G349	cleavage of the full-length Jagged1 protein into 39 kDa and 95 kDa fragments
